Test results from US11459315B2, “Modulators of methyl modifying enzymes, compositions and uses thereof” (Constellation Pharmaceuticals, Inc., priority 2017, dated 2022).
Read-outs that look alike come from different tables or passages of the source.

Key:
PRC2 containing wt EZH2 = PRC2 containing wt EZH2 (Homo sapiens (Human), UniProt Q15910); assay: EZH2 biochemical assay (IC50), 3H-SAM incorporation into biotinylated H3 peptide
Method in brief: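 Activity was measured as ³H-methyl transfer to a biotinylated H3K27me1 peptide over 18-22 h at room temperature, with capture on streptavidin flash plates. The 30 pM wt-EZH2 PRC2 complex was first pre-incubated 3-5 h with compound, 450 nM SAM/450 nM ³H-SAM and 2 µM H3K27me3 activator (pH 8.5, 0.8% DMSO). Four-parameter fits gave IC50.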

[1] = system: H3K27me3 mark in HeLa cells (EZH2); assay: H3K27me3 Alpha Hela Assay (AlphaLISA); assay type: cell-based; details: HeLa cells, 72 hrs, read-out: EZH2 Cell H3K27me3 Alpha HeLa (EC50 K27me3)
Method in brief: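 HeLa cells (1,000/well) treated with ten 3-fold compound doses for 72 h at 37 °C; lysates extracted and H3K27me3 detected by AlphaLISA with anti-K27me3 acceptor beads, biotinylated anti-H3 (3 nM) and streptavidin donor beads. EC50 from DMSO-normalized dose-response curves; duplicate plate assessed viability.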

[2] = 30 pM PRC2 containing wt EZH2; 3-5 h pre-incubation; read-out: EZH2 (IC50)
[3] = EZH2 (IC50), 30 pM PRC2 containing wt EZH2; 3-5 h pre-incubation

PRC2 containing wt EZH2, sequence (Q15910 whole entry): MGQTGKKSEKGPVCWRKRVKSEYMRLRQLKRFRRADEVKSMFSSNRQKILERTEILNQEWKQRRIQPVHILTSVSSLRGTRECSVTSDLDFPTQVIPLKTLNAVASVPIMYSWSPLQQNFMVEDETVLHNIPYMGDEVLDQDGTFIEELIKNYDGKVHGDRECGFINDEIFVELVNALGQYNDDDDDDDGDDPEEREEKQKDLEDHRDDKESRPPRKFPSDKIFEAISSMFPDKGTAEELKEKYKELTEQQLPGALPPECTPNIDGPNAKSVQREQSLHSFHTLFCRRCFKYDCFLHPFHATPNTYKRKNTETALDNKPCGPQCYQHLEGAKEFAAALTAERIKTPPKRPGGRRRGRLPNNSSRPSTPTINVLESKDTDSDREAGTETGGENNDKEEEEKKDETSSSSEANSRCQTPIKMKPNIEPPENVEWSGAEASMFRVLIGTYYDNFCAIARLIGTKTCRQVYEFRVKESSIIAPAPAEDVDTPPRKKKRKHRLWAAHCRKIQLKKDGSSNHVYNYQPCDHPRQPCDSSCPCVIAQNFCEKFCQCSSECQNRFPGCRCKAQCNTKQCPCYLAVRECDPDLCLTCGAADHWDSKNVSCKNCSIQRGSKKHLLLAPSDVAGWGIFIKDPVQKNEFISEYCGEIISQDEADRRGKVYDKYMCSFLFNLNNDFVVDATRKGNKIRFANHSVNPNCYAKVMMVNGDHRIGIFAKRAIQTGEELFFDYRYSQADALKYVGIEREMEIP
PRC2 containing wt EZH2, sequence (O75530 whole entry partner): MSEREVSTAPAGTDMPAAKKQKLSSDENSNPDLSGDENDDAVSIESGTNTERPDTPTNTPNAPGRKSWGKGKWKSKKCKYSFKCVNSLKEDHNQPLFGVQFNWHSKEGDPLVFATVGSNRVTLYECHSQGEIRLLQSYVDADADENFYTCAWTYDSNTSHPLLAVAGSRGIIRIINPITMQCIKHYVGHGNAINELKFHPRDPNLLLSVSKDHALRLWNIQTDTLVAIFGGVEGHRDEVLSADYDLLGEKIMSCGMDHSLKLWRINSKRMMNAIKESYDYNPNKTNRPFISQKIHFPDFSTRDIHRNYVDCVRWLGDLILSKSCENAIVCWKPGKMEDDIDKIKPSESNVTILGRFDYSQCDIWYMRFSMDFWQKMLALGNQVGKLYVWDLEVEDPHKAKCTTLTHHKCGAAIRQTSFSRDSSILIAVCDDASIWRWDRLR
PRC2 containing wt EZH2, sequence (Q15022 whole entry partner): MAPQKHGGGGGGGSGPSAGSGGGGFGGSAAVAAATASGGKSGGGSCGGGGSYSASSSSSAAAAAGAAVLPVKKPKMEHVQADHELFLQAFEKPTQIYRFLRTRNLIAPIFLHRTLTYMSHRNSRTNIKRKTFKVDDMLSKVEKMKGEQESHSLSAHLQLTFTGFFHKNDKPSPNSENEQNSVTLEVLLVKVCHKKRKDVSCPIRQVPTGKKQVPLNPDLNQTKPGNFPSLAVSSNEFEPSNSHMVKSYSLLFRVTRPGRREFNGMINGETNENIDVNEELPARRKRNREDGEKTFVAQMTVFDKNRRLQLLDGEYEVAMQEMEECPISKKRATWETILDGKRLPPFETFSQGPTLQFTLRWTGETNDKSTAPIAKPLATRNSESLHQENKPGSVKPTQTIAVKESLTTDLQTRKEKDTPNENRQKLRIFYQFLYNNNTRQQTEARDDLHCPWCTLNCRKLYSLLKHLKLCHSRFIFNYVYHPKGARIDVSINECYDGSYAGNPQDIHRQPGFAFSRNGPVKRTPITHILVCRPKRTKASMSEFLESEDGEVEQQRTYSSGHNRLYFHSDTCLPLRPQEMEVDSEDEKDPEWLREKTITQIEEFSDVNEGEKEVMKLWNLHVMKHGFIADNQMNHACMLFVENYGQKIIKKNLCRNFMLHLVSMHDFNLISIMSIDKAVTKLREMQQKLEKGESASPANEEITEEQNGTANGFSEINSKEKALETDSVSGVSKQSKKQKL
PRC2 containing wt EZH2, sequence (Q09028 whole entry partner): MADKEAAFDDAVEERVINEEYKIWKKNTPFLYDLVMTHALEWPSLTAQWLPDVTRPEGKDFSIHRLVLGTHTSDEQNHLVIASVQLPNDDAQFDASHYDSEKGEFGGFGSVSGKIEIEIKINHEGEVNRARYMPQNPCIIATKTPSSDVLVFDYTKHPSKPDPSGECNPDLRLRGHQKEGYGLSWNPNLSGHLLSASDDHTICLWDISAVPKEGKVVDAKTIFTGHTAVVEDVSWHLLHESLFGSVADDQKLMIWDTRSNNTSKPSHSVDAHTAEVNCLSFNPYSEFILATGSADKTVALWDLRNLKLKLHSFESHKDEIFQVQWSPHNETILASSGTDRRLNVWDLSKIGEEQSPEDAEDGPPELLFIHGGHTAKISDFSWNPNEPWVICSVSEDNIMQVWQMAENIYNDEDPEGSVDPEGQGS
PRC2 containing wt EZH2, sequence (Q6ZN18 whole entry partner): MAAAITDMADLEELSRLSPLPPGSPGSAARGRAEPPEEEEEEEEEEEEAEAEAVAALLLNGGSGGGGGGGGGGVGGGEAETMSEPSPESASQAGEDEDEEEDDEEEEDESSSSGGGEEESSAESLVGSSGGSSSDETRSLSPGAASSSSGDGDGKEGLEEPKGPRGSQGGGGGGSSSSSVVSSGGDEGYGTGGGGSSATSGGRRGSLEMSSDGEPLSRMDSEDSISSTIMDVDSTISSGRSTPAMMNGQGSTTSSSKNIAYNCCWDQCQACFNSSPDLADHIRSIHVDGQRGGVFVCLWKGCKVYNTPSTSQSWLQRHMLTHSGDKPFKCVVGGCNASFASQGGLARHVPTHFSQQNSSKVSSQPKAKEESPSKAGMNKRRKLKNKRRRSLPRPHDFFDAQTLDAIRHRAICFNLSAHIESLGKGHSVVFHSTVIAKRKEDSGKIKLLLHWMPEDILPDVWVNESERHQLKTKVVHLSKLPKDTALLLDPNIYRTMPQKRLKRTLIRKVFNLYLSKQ

SMILES	IC50 (PRC2 containing wt EZH2; [2]) [nM]	EC50 [1] [nM]	IC50 (PRC2 containing wt EZH2; [3]) [nM]	EC50 ([1]; Homo sapiens, HeLa, 72 h) [nM]	IC50 (PRC2 containing wt EZH2; read-out: EZH2 (IC50); 30 pM PRC2 containing wt EZH2; 3-5 h pre-incubation) [nM]
CSc1cc(C)[nH]c(=O)c1CNC(=O)c1c(C)n([C@H](C)C2CCC(Oc3cnn(C)c3)CC2)c2ncccc12 (single isomer, unassigned) [147 (isomer 2)]	< 0.5	< 10	–	–	–
CSc1cc(C)[nH]c(=O)c1CNC(=O)c1c(C)n([C@H](C)C2CCN(CC(F)(F)F)CC2)c2cccc(Br)c12 [Example 128, (R)-4-bromo-2-methyl-N-((6-methyl-4-(methylthio)-2-oxo-1,2-dihydropyridin-3-yl)methyl)-1-(1-(1-(2,2,2-trifluoroethyl)piperidin-4-yl)ethyl)-1H-indole-3-carboxamide]	–	–	0.5 to 5	10 to 100	–
CSc1cc(C)[nH]c(=O)c1CNC(=O)c1c(C)n([C@H](C)C2CCC(N3CC(OC(C)(C)C)C3)CC2)c2ncc(Cl)cc12 (stereo partly drawn) [Example 129, 1-((R)-1-(4-(3-(tert-butoxy)azetidin-1-yl)cyclohexyl)ethyl)-5-chloro-2-methyl-N-((6-methyl-4-(methylthio)-2-oxo-1,2-dihydropyridin-3-yl)methyl)-1H-pyrrolo[2,3-b]pyridine-3-carboxamide]	< 0.5	–	–	< 10	–
CSc1cc(C)[nH]c(=O)c1CNC(=O)c1c(C)n([C@H](C)C2CC(NC3COC3)C2)c2ccccc12 (stereo partly drawn) [Example 49, 2-methyl-N-((6-methyl-4-(methylthio)-2-oxo-1,2-dihydropyridin-3-yl)methyl)-1-((R)-1-(3-(oxetan-3-ylamino)cyclobutyl)ethyl)-1H-indole-3-carboxamide]	0.5 to 5	–	–	> 100	–
CSc1cc(C)[nH]c(=O)c1CNC(=O)c1c(C)n([C@H](C)C2CCC(N(C)C3(C)COC3)CC2)c2ccccc12 (single isomer, unassigned) [3 (isomer 1)]	< 0.5	–	–	< 10	–
CSc1cc(C)[nH]c(=O)c1CNC(=O)c1c(C)n([C@H](C)C2CCC(N3CCOC3=O)CC2)c2ccccc12 (stereo partly drawn) [Example 74, 2-methyl-N-((6-methyl-4-(methylthio)-2-oxo-1,2-dihydropyridin-3-yl)methyl)-1-((R)-1-(4-(2-oxooxazolidin-3-yl)cyclohexyl)ethyl)-1H-indole-3-carboxamide]	< 0.5	–	–	10 to 100	–
COC1(C)CN(C2CCC([C@@H](C)n3c(C)c(C(=O)NCc4c(SC)cc(C)[nH]c4=O)c4ccccc43)CC2)C1 (single isomer, unassigned) [90 (isomer 1)]	< 0.5	10 to 100	–	–	–
CSc1cc(C)[nH]c(=O)c1CNC(=O)c1c(C)n([C@H](C)C23CC(N(C)CC(F)(F)F)(C2)C3)c2ccccc12 [Example 10, (R)-2-methyl-1-(1-(3-(methyl(2,2,2-trifluoroethyl)amino)bicyclo[1.1.1]pentan-1-yl)ethyl)-N-((6-methyl-4-(methylthio)-2-oxo-1,2-dihydropyridin-3-yl)methyl)-1H-indole-3-carboxamide]	< 0.5	–	–	< 10	–
CSc1cc(C)[nH]c(=O)c1CNC(=O)c1c(C)n([C@H](C)C2CCNC[C@H]2F)c2ccccc12 (stereo partly drawn) [Example 38, 1-((1R)-1-((3S)-3-fluoropiperidin-4-yl)ethyl)-2-methyl-N-((6-methyl-4-(methylthio)-2-oxo-1,2-dihydropyridin-3-yl)methyl)-1H-indole-3-carboxamide]	–	–	< 0.5	10 to 100	–
CSc1cc(C)[nH]c(=O)c1CNC(=O)c1c(C)n([C@H](C)C2CCC(Oc3cnn(C)c3)CC2)c2ncccc12 (single isomer, unassigned) [147 (isomer 1)]	< 0.5	–	–	< 10	–
CSc1cc(C)[nH]c(=O)c1CNC(=O)c1c(C)n([C@H](C)C2CCC(N3CC(OC4CCC4)C3)CC2)c2ncc(Cl)cc12 (stereo partly drawn) [Example 126, 5-chloro-1-((R)-1-(4-(3-cyclobutoxyazetidin-1-yl)cyclohexyl)ethyl)-2-methyl-N-((6-methyl-4-(methylthio)-2-oxo-1,2-dihydropyridin-3-yl)methyl)-1H-pyrrolo[2,3-b]pyridine-3-carboxamide]	< 0.5	–	–	< 10	–
COC1CC(N2CC[C@H]([C@@H](C)n3c(C)c(C(=O)NCc4c(SC)cc(C)[nH]c4=O)c4ccccc43)[C@@H](F)C2)C1 (stereo partly drawn) [Example 152, 1-((R)-1-((3R,4R)-3-fluoro-1-(3-methoxycyclobutyl)piperidin-4-yl)ethyl)-2-methyl-N-((6-methyl-4-(methylthio)-2-oxo-1,2-dihydropyridin-3-yl)methyl)-1H-indole-3-carboxamide]	< 0.5	–	–	< 10	–
CSc1cc(C)[nH]c(=O)c1CNC(=O)c1c(C)n([C@H](C)C2CCN(C)C[C@H]2F)c2ccccc12 (stereo partly drawn) [Example 43, 1-((1R)-1-((3S)-3-fluoro-1-methylpiperidin-4-yl)ethyl)-2-methyl-N-((6-methyl-4-(methylthio)-2-oxo-1,2-dihydropyridin-3-yl)methyl)-1H-indole-3-carboxamide]	–	–	< 0.5	10 to 100	–
CSc1cc(C)[nH]c(=O)c1CNC(=O)c1c(C)n([C@H](C)C2CCC(NC3(CF)COC3)CC2)c2ncccc12 (single isomer, unassigned) [155 (isomer 2)]	0.5 to 5	10 to 100	–	–	–
CSc1cc(C)[nH]c(=O)c1CNC(=O)c1c(C)n([C@H](C)C2CCC(N3CC(OC(F)F)C3)CC2)c2cc(F)ccc12 (stereo partly drawn) [Example 29, 1-((R)-1-(4-(3-(difluoromethoxy)azetidin-1-yl)cyclohexyl)ethyl)-6-fluoro-2-methyl-N-((6-methyl-4-(methylthio)-2-oxo-1,2-dihydropyridin-3-yl)methyl)-1H-indole-3-carboxamide]	< 0.5	–	–	< 10	–
CSc1cc(C)[nH]c(=O)c1CNC(=O)c1c(C)n([C@H](C)C2CCC(N3CC(OC(F)(F)F)C3)CC2)c2ccccc12 (single isomer, unassigned) [21 (isomer 1)]	< 0.5	–	–	< 10	–
COC1CN(C2CCC([C@@H](C)n3c(C)c(C(=O)NCc4c(SC)cc(C)[nH]c4=O)c4ccccc43)CC2)C1 (single isomer, unassigned) [4 (isomer 2)]	–	10 to 100	–	–	< 0.5
CSc1cc(C)[nH]c(=O)c1CNC(=O)c1c(C)n([C@H](C)C2CCC(NC3(C(F)(F)F)COC3)CC2)c2ncncc12 (single isomer, unassigned) [164 (isomer 1)]	< 0.5	–	–	< 10	–
COC1CN(C2CCC([C@@H](C)n3c(C)c(C(=O)NCc4c(SC)cc(C)[nH]c4=O)c4ccccc43)CC2)C1 (single isomer, unassigned) [4 (isomer 1)]	–	–	< 0.5	< 10	–
CSc1cc(C)[nH]c(=O)c1CNC(=O)c1c(C)n([C@H](C)C2CCC(N3CC(OC(F)(F)F)C3)CC2)c2ncncc12 (single isomer, unassigned) [123 (isomer 1)]	< 0.5	–	–	< 10	–
CSc1cc(C)[nH]c(=O)c1CNC(=O)c1c(C)n([C@H](C)C2OCC(NC3(C)COC3)CO2)c2ccccc12 (single isomer, unassigned) [6 (isomer 2)]	0.5 to 5	> 100	–	–	–
COC1CN(C2CCC([C@@H](C)n3c(C)c(C(=O)NCc4c(SC5CC5)cc(C)[nH]c4=O)c4ccccc43)CC2)C1 (stereo partly drawn) [Example 99, N-((4-(cyclopropylthio)-6-methyl-2-oxo-1,2-dihydropyridin-3-yl)methyl)-1-((R)-1-(4-(3-methoxyazetidin-1-yl)cyclohexyl)ethyl)-2-methyl-1H-indole-3-carboxamide]	< 0.5	–	–	10 to 100	–
CSc1cc(C)[nH]c(=O)c1CNC(=O)c1c(C)n([C@H](C)C2CCN(CC(F)F)CC2)c2ncccc12 [Example 59, (R)-1-(1-(1-(2,2-difluoroethyl)piperidin-4-yl)ethyl)-2-methyl-N-((6-methyl-4-(methylthio)-2-oxo-1,2-dihydropyridin-3-yl)methyl)-1H-pyrrolo[2,3-b]pyridine-3-carboxamide]	–	–	< 0.5	< 10	–
CSc1cc(C)[nH]c(=O)c1CNC(=O)c1c(C)n([C@H](C)C2CCC(NC3(C(F)(F)F)CC3)CC2)c2ncccc12 (stereo partly drawn) [Example 161, 2-methyl-N-((6-methyl-4-(methylthio)-2-oxo-1,2-dihydropyridin-3-yl)methyl)-1-((R)-1-(4-((1-(trifluoromethyl)cyclopropyl)amino)cyclohexyl)ethyl)-1H-pyrrolo[2,3-b]pyridine-3-carboxamide]	< 0.5	–	–	10 to 100	–
CSc1cc(C)[nH]c(=O)c1CNC(=O)c1c(C)n([C@H](C)C2CCC(N3CC(F)C3)CC2)c2ncc(F)cc12 (single isomer, unassigned) [84 (isomer 1)]	–	–	< 0.5	< 10	–
CSc1cc(C)[nH]c(=O)c1CNC(=O)c1c(C)n([C@H](C)C2CCN(CC(F)(F)F)CC2)c2cccc(C#N)c12 [Example 97, (R)-4-cyano-2-methyl-N-((6-methyl-4-(methylthio)-2-oxo-1,2-dihydropyridin-3-yl)methyl)-1-(1-(1-(2,2,2-trifluoroethyl)piperidin-4-yl)ethyl)-1H-indole-3-carboxamide]	> 5	–	–	> 100	–
CSc1cc(C)[nH]c(=O)c1CNC(=O)c1c(C)n([C@H](C)C2CCC(NC3(CF)COC3)CC2)c2ncncc12 (single isomer, unassigned) [156 (isomer 1)]	< 0.5	–	–	< 10	–
